Experimental data reported in patent US10023592B2, “Bromodomain inhibitors” (Celgene Quanticel Research, Inc., priority 2013, dated 2018).

What was measured:
[1] = tested on: Raji, human Burkitts lymphoma cells; experiment: Cell-MTS proliferation assay, Raji; format: cell-based; conditions: Homo sapiens, 168 hr
Outline: (§1)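 Cells were seeded per 96-well at densities giving ~90% confluence by day 7 (Raji 15,000, HL-60 5,000, NCI-H460 3,000) and dosed 24 hr later with an 11-point dilution, 100 μM to 2.0 nM final. Seven-day MTS colorimetric read at OD490; IC50 from background-subtracted, DMSO-normalised values.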

BRD4(BD1) = BRD4(BD1) (Homo sapiens (Human), UniProt O60885); experiment: In vitro enzyme inhibition assay (BRD4 AlphaScreen); format: binding
Outline: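 AlphaScreen proximity readout, using streptavidin donor and Ni-chelate acceptor beads at 5 μg/mL final, monitors biotin-H4 tetraacetylated peptide interaction with purified His-tagged BRD4.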

[2] = tested on: NCI-H460, human non-small cell lung cancer cells; experiment: Cell-MTS proliferation assay, NCI-H460; format: cell-based; conditions: Homo sapiens, 168 hr
Outline: as §1

[3] = tested on: HL-60, human proleukemia cells; experiment: Cell-MTS proliferation assay, HL-60; format: cell-based; conditions: Homo sapiens, 168 hr
Outline: as §1

[4] = in vitro enzyme inhibition assay
[5] = NCI-H460, Cell-MTS proliferation
[6] = Cell-MTS proliferation, Raji cells
[7] = Cell-MTS proliferation, NCI-H460 cells
[8] = Cell-MTS proliferation, HL-60 cells
[9] = Raji, Cell-MTS, class symbols A/B/C
[10] = NCI-H460, Cell-MTS, class symbols A/B/C
[11] = HL-60, Cell-MTS, class symbols A/B/C

Row | IC50 ([1]; Raji, Cell-MTS proliferation) [nM] | IC50 (BRD4(BD1); [4]) [nM] | IC50 [2, 5] [nM] | IC50 ([3]; HL-60, Cell-MTS proliferation) [nM] | IC50 [1, 6] [nM] | IC50 [2, 7] [nM] | IC50 [3, 8] [nM] | IC50 [1, 9] [nM] | IC50 (BRD4(BD1); class symbols A/B/C) [nM] | IC50 [2, 10] [nM] | IC50 [3, 11] [nM] | Structure (SMILES)
1 | < 500 | < 500 | > 5000 | < 500 | – | – | – | – | – | – | – | CCCCc1cnc(NS(=O)(=O)CC)nc1-c1cn(C)c(=O)c2ccccc12 [Example 309, N-[5-butyl-4-(2-methyl-1-oxoisoquinolin-4-yl)pyrimidin-2-yl] ethanesulfonamide]
2 | < 500 | < 500 | > 5000 | < 500 | – | – | – | – | – | – | – | Cn1cc(-c2cc(S(C)(=O)=O)ccc2O[C@H]2CC[C@H](O)CC2)c2cc(F)ccc2c1=O [Example 186, 6-fluoro-4-[2-(trans-4-hydroxycyclohexyl)oxy-5-methylsulfonylphenyl]-2-methylisoquinolin-1-one]
3 | < 500 | < 500 | > 5000 | < 500 | – | – | – | – | – | – | – | CCS(=O)(=O)c1cnc(OCC2CC2)c(-c2cn(C)c(=O)c3ccccc23)c1 [Example 322, 4-[2-(cyclopropylmethoxy)-5-ethylsulfonylpyridin-3-yl]-2-methylisoquinolin-1-one]
4 | < 500 | < 500 | > 5000 | < 500 | – | – | – | – | – | – | – | CCS(=O)(=O)c1ccc(OCC2CC2)c(-c2cc(Cl)c(=O)n(C)c2)c1 [Example 272, 3-chloro-5-[2-(cyclopropylmethoxy)-5-ethylsulfonylphenyl]-1-methylpyridin-2-one]
5 | < 500 | < 500 | > 5000 | < 500 | – | – | – | – | – | – | – | CCS(=O)(=O)Nc1ccc(OCC2CC2)c(-c2cn(C)c(=O)c3occc23)c1 [Example 255, N-[4-(cyclopropylmethoxy)-3-(6-methyl-7-oxofuro[2,3-c]pyridine-4-yl)phenyl]ethanesulfonamide]
6 | < 500 | < 500 | > 5000 | < 500 | – | – | – | – | – | – | – | Cn1cc(-c2nc(NS(C)(=O)=O)ncc2OCC2CC2)c2ccccc2c1=O [Example 152, N-[5-(cyclopropylmethoxy)-4-(2-methyl-1-oxoisoquinolin-4-yl)pyrimidin-2-yl]methanesulfonamide]
7 | 500 to 5000 | < 500 | > 5000 | < 500 | – | – | – | – | – | – | – | CCS(=O)(=O)c1ccc(OCC2CC2)c(-c2cc(OC(F)F)c(=O)n(C)c2)c1 [Example 287, 5-[2-(cyclopropylmethoxy)-5-ethylsulfonylphenyl]-3-(difluoromethoxy)-1-methylpyridin-2-one]
8 | – | < 500 | – | – | < 500 | > 5000 | < 500 | – | – | – | – | Cc1cc(-c2cc(S(C)(=O)=O)ccc2NC2CCCC2)cn(C)c1=O [Example 417, 5-[2-(cyclopentylamino)-5-methylsulfonylphenyl]-1,3-dimethylpyridin-2-one]
9 | > 5000 | > 5000 | > 5000 | > 5000 | – | – | – | – | – | – | – | Cn1cc(-c2cc(S(C)(=O)=O)ccc2OCC2CC2)n2cnnc2c1=O [Example 235, 5-[2-(cyclopropylmethoxy)-5-methylsulfonylphenyl]-7-methyl-[1,2,4]triazolo[4,3-a]pyrazin-8-one]
10 | – | – | – | – | – | – | – | < 500 | < 500 | > 5000 | < 500 | Cn1cc(-c2cc(S(C)(=O)=O)ccc2Oc2ccc(F)cc2F)c2ccccc2c1=O [Example 92, 4-[2-(2,4-difluorophenoxy)-5-methylsulfonylphenyl]-2-methylisoquinolin-1-one]
11 | < 500 | < 500 | > 5000 | < 500 | – | – | – | – | – | – | – | Cn1cc(-c2cc(NS(C)(=O)=O)ccc2Oc2ccc(F)cc2F)cc(F)c1=O [Example 271, N-[4-(2,4-difluorophenoxy)-3-(5-fluoro-1-methyl-6-oxopyridin-3-yl)phenyl]methanesulfonamide]
12 | 500 to 5000 | < 500 | > 5000 | 500 to 5000 | – | – | – | – | – | – | – | Cc1cc(-c2nc(NS(C)(=O)=O)ncc2OCC2CC2)cn(C)c1=O [Example 153, N-[5-(cyclopropylmethoxy)-4-(1,5-dimethyl-6-oxopyridin-3-yl)pyrimidin-2-yl]methanesulfonamide]
13 | – | – | – | – | – | – | – | < 500 | < 500 | > 5000 | < 500 | CCS(=O)(=O)Nc1ccc(Oc2ccc(F)cc2F)c(-c2cc(F)c(=O)n(C)c2)c1 [Example 122, N-[4-(2,4-difluorophenoxy)-3-(5-fluoro-1-methyl-6-oxopyridin-3-yl)phenyl]ethanesulfonamide]
14 | < 500 | < 500 | > 5000 | < 500 | – | – | – | – | – | – | – | CCS(=O)(=O)c1ccc(OCC2CC2)c(-c2cn(C)c(=O)c3cnc(-c4cnn(C)c4)nc23)c1 [Example 226, 8-[2-(cyclopropylmethoxy)-5-ethylsulfonylphenyl]-6-methyl-2-(1-methylpyrazol-4-yl)pyrido[4,3-d]pyrimidin-5-one]
15 | – | < 500 | – | – | < 500 | > 5000 | < 500 | – | – | – | – | CCS(=O)(=O)c1ccc(OCC2CC2)c(-c2cn(C)c(=O)cc2C)c1 [Example 466, 5-[2-(cyclopropylmethoxy)-5-ethylsulfonylphenyl]-1,4-dimethylpyridin-2-one]
16 | 500 to 5000 | 500 to 5000 | > 5000 | 500 to 5000 | – | – | – | – | – | – | – | CCS(=O)(=O)Cc1ccc(OCC(F)(F)F)c(-c2cn(C)c(=O)c3cncn23)c1 [Example 371, 5-[5-(ethylsulfonylmethyl)-2-(2,2,2-trifluoroethoxy)phenyl]-7-methylimidazo[1,5-a]pyrazin-8-one]
17 | – | 500 to 5000 | – | – | > 5000 | > 5000 | 500 to 5000 | – | – | – | – | Cc1cc(-c2cc(S(C)(=O)=O)cc3c2OC(C)C3)cn(C)c1=O (stereo not drawn) [Example 486, 1,3-dimethyl-5-(2-methyl-5-methylsulfonyl-2,3-dihydro-1-benzofuran-7-yl)pyridin-2-one]
18 | 500 to 5000 | < 500 | > 5000 | 500 to 5000 | – | – | – | – | – | – | – | Cn1cc(-c2cc(CS(C)(=O)=O)ccc2OCC(F)(F)F)n2cncc2c1=O [Example 370, 7-methyl-5-[5-(methylsulfonylmethyl)-2-(2,2,2-trifluoroethoxy)phenyl] imidazo[1,5-a]pyrazin-8-one]
19 | 500 to 5000 | < 500 | > 5000 | < 500 | – | – | – | – | – | – | – | Cc1cc(-c2cc(OC(C)c3ccccc3)cc(S(C)(=O)=O)c2)cn(C)c1=O (stereo not drawn) [Example 336, 1,3-dimethyl-5-[3-methylsulfonyl-5-(1-phenylethoxy)phenyl]pyridin-2-one]
20 | < 500 | < 500 | > 5000 | < 500 | – | – | – | – | – | – | – | CCS(=O)(=O)Nc1ccc(Oc2ccc(F)cc2F)c(-c2cc(C)c(=O)n(CC3CC3)c2)c1 [Example 247, N-[3-[1-(cyclopropylmethyl)-5-methyl-6-oxopyridin-3-yl]-4-(2,4-difluoro-phenoxy)phenyl]ethanesulfonamide]
21 | – | < 500 | – | – | 500 to 5000 | > 5000 | < 500 | – | – | – | – | Cc1cc(-c2cc(S(C)(=O)=O)ccc2OC2CCOCC2)cn(C)c1=O [Example 420, 1,3-dimethyl-5-[5-methylsulfonyl-2-(oxan-4-yloxy)phenyl]pyridin-2-one]
22 | 500 to 5000 | < 500 | > 5000 | < 500 | – | – | – | – | – | – | – | CCS(=O)(=O)Nc1cnc(OCC2CC2)c(-c2cn(C)c(=O)c3sc(C(N)=O)cc23)c1 [Example 268, 4-[2-(cyclopropylmethoxy)-5-(ethylsulfonylamino)pyridin-3-yl]-6-methyl-7-oxothieno[2,3-c]pyridine-2-carboxamide]
23 | > 5000 | 500 to 5000 | > 5000 | > 5000 | – | – | – | – | – | – | – | Cn1cc(-c2cc(S(C)(=O)=O)ccc2NC(=O)C2CC2)c2ccccc2c1=O [Example 220, N-[2-(2-methyl-1-oxoisoquinolin-4-yl)-4-methylsulfonylphenyl]cyclopropanecarboxamide]
24 | – | < 500 | – | – | < 500 | > 5000 | < 500 | – | – | – | – | Cn1cc(-c2cn(CS(C)(=O)=O)c(=O)cc2Oc2ccc(F)cc2F)c2ccccc2c1=O [Example 387, 4-[4-(2,4-difluorophenoxy)-1-(methylsulfonylmethyl)-6-oxopyridin-3-yl]-2-methylisoquinolin-1-one]
25 | < 500 | < 500 | > 5000 | < 500 | – | – | – | – | – | – | – | CCS(=O)(=O)c1ccc(NCC2CC2)c(-c2cn(C)c(=O)c3ccccc23)c1 [Example 193, 4-[2-(cyclopropylmethylamino)-5-ethylsulfonylphenyl]-2-methylisoquinolin-1-one]
26 | < 500 | < 500 | > 5000 | < 500 | – | – | – | – | – | – | – | Cc1cc(-c2nc(NS(C)(=O)=O)ncc2Oc2ccc(F)cc2F)cn(CC2CC2)c1=O [Example 248, N-[4-[1-(cyclopropylmethyl)-5-methyl-6-oxopyridin-3-yl]-5-(2,4-difluorophenoxy)pyrimidin-2-yl]methanesulfonamide]
27 | – | < 500 | – | – | < 500 | > 5000 | < 500 | – | – | – | – | Cc1cc(-c2cc(NS(C)(=O)=O)ccc2OC2CCCOC2)cn(C)c1=O (stereo not drawn) [Example 446, N-[3-(1,5-dimethyl-6-oxopyridin-3-yl)-4-(oxan-3-yloxy)phenyl] methanesulfonamide]
